Source: patent US4771043A, “Steroidic aromatase inhibitors” (Farmitalia Carlo Erba, S.p.A., priority 1985, dated 1988)

What was measured:
[1] = test system: human placental aromatase; test: Aromatase inhibition in vitro (human placental microsomes, 3H2O release from 4-[1β,2β-3H]androstene-3,17-dione); assay type: biochemical; conditions: comparison with e.g. 4-OH-A
Protocol: (§1) Aromatase inhibition by the compounds of the present invention was determined both in vitro (human placental aromatase), and in vivo (ovarian aromatase activity) in rats.
Aromatase inhibition in vitro was determined as follows: the enzyme system was isolated from the microsomal fraction of human placental tissue according to standard procedure. The assay of Thompson and Siiteri [E. A. Thompson and P. K. Siiteri, J. Biol. Chem. 249, 5364, 1974] which determines the rate of aromatization as measured by the liberation of ^3 H2 O from 4-[1β,2β-^3 H]androstene-3,17-dione was used. All incubations were carried out in a shaking water bath at 37° C. in air in 10 mM potassium phosphate buffer, pH 7.5, which contained 100 mM KCl, 1 mM EDTA and 1 mM dithiothreitol. The experiments were carried out in 1 ml incubation volume containing 50 nM 4-[^3 H]androstenedione, various concentrations of the inhibitors, 100 μM NADPH and 0.05 mg of microsomal proteins. After 15 minutes of incubation the reaction was stopped by the addition of chloroform (5 ml). After centrifugation at 1500×g for 5 minutes, aliquots (0.5 ml) were removed from the water phase for determination of ^3 H2 O formed. […] Aromatase inhibition in vivo was determined in rats by the following procedure: […]

rat ovarian aromatase = test: Inhibition of rat ovarian aromatase in vivo (PMSG-treated adult female rats, oral dosing, ovarian microsomes assayed 24 hours later); conditions: for % AROMATASE INHIBITION: rat ovarian microsomes 24 hours after dosing, versus vehicle treated group
Protocol: as §1
adult female rats were twice treated subcutaneously with 100 I.U. pregnant mares' serum gonadotropin (PMSG) at 4 days' interval, in order to increase ovarian aromatase activity, according to Brodie procedure [A. M. H. Brodie et al, Steroids 38, 693, 1981]. Three days after the second PMSG treatment, groups of 6 animals each were given orally the vehicle (0.5% methocel) or the inhibitor at the dose reported in the following table. Animals were killed 24 hours later, microsomes were isolated from ovaries and their aromatase activity determined using a method similar to that described above for the evaluation of the in vitro activity. The incubation were carried out for 30 minutes in 1 ml incubation volume containing 0.1 mg of microsomal proteins, 100 nM 4-[^3 H]androstenedione and 100 μM NADPH.
% inhibition of control aromatase activity was calculated.

[2] = women, R. C. Coombes et al., Lancet II, 1237, 1984; cited from earlier work

SMILES | in vitro aromatase inhibiting potency compared with reference compounds (in words) [1] | % AROMATASE INHIBITION (rat ovarian aromatase; 10 mg/kg p.o.) [%] | effectiveness in vivo by oral route (in words) (rat ovarian aromatase; 10 mg/kg) | % AROMATASE INHIBITION (rat ovarian aromatase; 30 mg/kg p.o.) [%] | % AROMATASE INHIBITION (rat ovarian aromatase; 100 mg/kg p.o.) [%] | effectiveness in vivo by oral route (in words) (rat ovarian aromatase; 100 mg/kg) | conjugation after oral administration (in words) [2]
C[C@]12C=CC(=O)C=C1[C@@H](N)C[C@@H]1[C@@H]2CC[C@]2(C)C(=O)CC[C@@H]12 [FCE 24968, 6α-aminoandrosta-1,4-diene-3,17-dione] | less potent in vitro than, e.g., 4-OH-A | 53 | very effective | 71 |  |  | 
C[C@]12CCC(=O)C(O)=C1CC[C@@H]1[C@@H]2CC[C@]2(C)C(=O)CC[C@@H]12 [4-OH-A, 4-hydroxyandrosta-4-ene-3,17-dione, reference compound] |  |  |  | 7 | 21 | ineffective | extensively conjugated after oral administration
C[C@]12C=CC(=O)C=C1[C@@H](N=[N+]=[N-])C[C@@H]1[C@@H]2CC[C@]2(C)C(=O)CC[C@@H]12 [FCE 24403, 6α-azido androsta-1,4-diene-3,17-dione] | less potent in vitro than, e.g., 4-OH-A | 81 | very effective | 89 |  |  | 
C[C@]12C=CC(=O)C=C1CC[C@@H]1[C@@H]2CC[C@]2(C)C(=O)CC[C@@H]12 [androsta-1,4-diene-3,17-dione, reference compound] |  |  |  | 37 |  |  | 
C[C@]12C=CC(=O)C=C1CC[C@@H]1[C@@H]2CC[C@]2(C)OC(=O)CC[C@@H]12 [testolactone, D-homo-17a-oxaandrosta-1,4-diene-3,17-dione, reference compound] |  |  |  | 2 |  |  | 
